Tests used:
[1] = molecular target: T1, hen egg white lysozyme (HEWL) (Gallus gallus, UniProt P00698); experiment: Förster resonance energy transfer (FRET) binding distance, HEWL donor / metal complex acceptor
T1 construct: whose 129 amino acid residues are linked together by four disulfide bridges to form a single polypeptide chain; purchased Sigma-Aldrich L6876; host or cells: hen egg white (natural source, per the protein's name)
Description: Förster resonance energy transfer (FRET) is a sensitive fluorescence-based approach that acts as a spectroscopic ruler to determine the binding distances within 1–10 nm between interacting molecules. Owing to the good overlap between the emission fluorescence spectrum of HEWL, as donor molecule, and the absorption spectra of three metal complexes of diacetylcurcumin, as acceptor molecules (electronic supplementary material, figure S4), the FRET method was used to obtain distance-dependent information of the donor-acceptor pairs. According to Förster's non-radiative energy transfer theory, the value of energy transfer efficiency, E, can be measured using the following equation:3.5 E=1−F/F0=R06/R06+r^6, where R0 and r represent the critical energy transfer distance and distance between donor and acceptor, respectively. The R0 parameter, the distance for 50% energy transfer, can be also calculated by the following equation:3.6 R06=8.79 × 10^−25[K^2n^−4ϕJ(λ)],
where K^2 is the relative orientation of the donor and acceptor (equal to 2/3 for a random orientation), n denotes the average refractive index of the medium (equal to 1.33), and φ represents the fluorescence quantum yield of the donor (equal to 0.15). […] Therefore, it can be concluded that a non-radiative energy transfer process contributes to the fluorescence quenching of HEWL by the metal complexes of diacetylcurcumin. […]

[2] = molecular target: T1, hen egg white lysozyme (HEWL); experiment: Synchronous fluorescence spectroscopy of HEWL; type: binding; details: Δλ = 60 nm
Protocol: To obtain synchronous fluorescence spectra, simultaneous scanning of excitation and emission monochromators was performed in such a way as to maintain a constant wavelength interval between them. The changes in the molecular microenvironment of tyrosine and tryptophan residues of HEWL were monitored by fixing the wavelength interval (Δλ = λem − λex) individually at 15 and 60 nm, respectively. The concentrations of HEWL and three metal complexes of diacetylcurcumin were the same as those mentioned for the intrinsic fluorescence spectroscopy.
To investigate the effect of the metal complexes of diacetylcurcumin on the conformation of tyrosine and tryptophan residues of HEWL, synchronous fluorescence spectra of HEWL were recorded alone and in the presence of the metal complexes (electronic supplementary material, figure S5). By fixing the Δλ value, i.e. the difference between excitation and emission wavelengths, at 15 and 60 nm, synchronous fluorescence spectroscopy provides useful information on the microenvironmental changes of tyrosine and tryptophan residues of proteins, respectively. As shown in the electronic supplementary material, figure S5, all three metal complexes of diacetylcurcumin strongly quench the emission fluorescence of HEWL at both 15 and 60 nm. […] At Δλ = 15 nm, no shift in the emission maximum of HEWL is observed, whereas at Δλ = 60 nm, a 2 nm blue shift is observed in the emission spectrum of tryptophan residues of the protein after the interaction with the metal complexes of diacetylcurcumin except for the VO(DAC)2 complex. […] Overall, it can be concluded that the formation of HEWL/metal complex bioconjugates is associated with the binding of three metal complexes of diacetylcurcumin to both tyrosine and tryptophan residues in which the conformational changes can occur only around the tryptophan residues of the protein. It should be noted that the reduction in the polarity of the microregions surrounding tryptophan residues of the protein has already been observed by the intrinsic emission fluorescence titrations (see §3.1.1.).

| SMILES | binding distance r between donor and acceptor [1] | energy transfer value (E) [1] | microenvironment of tryptophan residues of HEWL [2] |
| --- | --- | --- | --- |
| COc1cc(C=CC(=O)C=C([O-])C=Cc2ccc(OC(C)=O)c(OC)c2)ccc1OC(C)=O.COc1cc(C=CC(=O)C=C([O-])C=Cc2ccc(OC(C)=O)c(OC)c2)ccc1OC(C)=O.COc1cc(C=CC(=O)C=C([O-])C=Cc2ccc(OC(C)=O)c(OC)c2)ccc1OC(C)=O.[In+3] [In(DAC)3, indium diacetylcurcumin] | least value of the binding distance | 18% | more hydrophobic |
| COc1cc(/C=C/C(=O)C=C([O-])/C=C/c2ccc(OC(C)=O)c(OC)c2)ccc1OC(C)=O.COc1cc(/C=C/C(=O)C=C([O-])/C=C/c2ccc(OC(C)=O)c(OC)c2)ccc1OC(C)=O.[O]=[V+2] [VO(DAC)2, vanadyl diacetylcurcumin] |  |  | remains unaffected |

From paper PMC10645073, “Interaction of gallium, indium and vanadyl diacetylcurcumin complexes with lysozyme: mechanistic aspects and evaluation of antiamyloidogenic activity” (Royal Society Open Science, 2023)
